Values joined by “and” are separate entries in the source; they are usually repeats but may differ in a detail not shown here. Identical values can stand only once.
How the values were obtained:
SMN protein = SMN protein levels by Western blotting in fibroblasts derived from SMA type II patients; type: cell-based, human; conditions: 72 h, compared to 0.5% DMSO, single samples
Method: (§1) Fibroblasts derived from SMA patients (GM03813; Coriell Cell Repositories) were grown at 37° C. in cell culture bottles with Dulbecco's Modified Eagle Medium (DMEM; Gibco) and […] glucose. The medium was supplemented with penicillin (100 U/ml) and streptomycin ([…]) [1% P/S; Gibco] and 10% inactivated fetal bovine serum (FBS; Gibco).
(§2) For RNA extraction 400,000 GM03813 fibroblasts were seeded in 60 mm culture dishes in 4 ml of supplemented DMEM medium. The following day the medium was changed, and the candidate compound was added at its maximum non-toxic concentration. The cells were incubated for 48 hours and then washed with 1× PBS and collected in sterile 1.5 ml tubes. The same was done for the evaluation of the effect of haloperidol on the level of SMN protein (example 2) with the difference that 1,000,000 fibroblasts were used in a 100 mm cell culture plate and that the cells were collected after […] with a RIPA protein extraction buffer supplemented with a protease inhibitor cocktail (cOmplete; Roche).
Fibroblasts derived from SMA type Il patients were incubated with haloperidol at three concentrations for 72 h. 10 μg of protein extracted from cells treated with haloperidol were separated by electrophoresis with acrylamide/bis-acrylamide gels SDS-PAGE with the Mini-protean Electrophoresis System (Bio-Rad). After electrophoresis was carried out, the proteins were transferred to a nitrocellulose membrane (GE Healthcare) using a semi-dry electro-transfer system (Bio-Rad) for one hour with a constant voltage of 15 V. The membranes were incubated with a blocking solution (5% skim milk in PBST, 1× PBS, 0.1% Tween 20) for at least 1 h at room temperature. […]
Chemiluminescence was detected using SuperSignal West Pico Sensitivity Substrate (Pierce) and acquired with ImageQuant LAS 4000 (GE Healthcare). […] Statistical significance was calculated using the Student's t-test (* p<0.05, ** p<0.01, *** p<0.001).

SMN2 Δ7 transcript = assay: qPCR quantification of SMN2 without exon 7 (Δ7) transcript in SMA fibroblasts; type: cell-based, human; design: key: relative expression (2^-ΔΔCt), normalized to reference gene; conditions: 48 hours, GM03813 fibroblasts, normalized to GAPDH, each of 3 samples
Method: as §1, §2
(§3) Extraction of RNA from cells was carried out with ReliaPrep™ RNA Cell Miniprep System (Promega), following the manufacturer's instructions. […] RNA concentration and salt contamination were measured with the NanoDrop spectrophotometer (ThermoFisher). The samples were stored at −80° C. […] of total RNA was retrotranscribed using SuperScript III retrotranscriptase (Invitrogen) following the manufacturer's instructions. Genomic DNA contamination was monitored in the RNA samples without the addition of retrotranscriptase.
(§4) For the quantification of the SMN2 full length (FL) and SMN2 without exon 7 (Δ7) transcripts, qPCR Probe Mix (Solis Biodyne) was used. The reaction was carried out in a multiplex manner, in which the signal from the SMN2 and GAPDH probe was read in a single reaction. 10 ng of cDNA was used as a standard and the concentration of both probes was 250 nM.
(§5) Primer sets for detection of SMN2 FL or Δ7 isoforms were used at a final concentration of 500 nM while the concentration of the primer set used for GAPDH was 150 nM. All reactions were carried out using a Step-One Real-Time PCR thermocycler (Applied Biosystems). In all cases, the experiment included 3 biological samples and three technical replicates for each sample. Expression levels were normalized to the reference gene using a 2-^ΔΔCt method. Primers were obtained from Naryshkin, N. A. et al. Science (2014) 345, 688-693.
(§6) The selected SMA fibroblast line has 3 copies of the SMN2 gene and homozygous deletion of Ex7-Ex8 in SMN1 and therefore only SMN2 gene transcripts were measured. The conditions for cell cultures and extraction protocols are described in Example 1.

[1] = system: myoblasts derived from SMA type II patients (KM1150SMAII7PV); assay: Fusion index of immortalized myoblasts derived from SMA type II patients; type: cell-based, human; conditions: 72 h, healthy myoblasts about 68%, patient myoblasts 50%
Method: Fusion index of immortalized myoblasts derived from patients with SMA type II. […] Healthy (control; abbreviated as CON) and solvent-treated 25 SMA myoblasts (0.5% DMSO) were used to establish a difference in the differentiation process. Risdiplam at 1 μM was used as a positive control. Nuclei were labeled with 4′,6-diamidino-2-phenylindole (DAPI) and myoblasts were detected using an anti-Desmin antibody. Multinuclear myotubes are marked with white arrows. The fusion index of DMSO-treated healthy and SMA differentiated myoblasts, and compound-treated SMA myoblasts, was calculated. Data were collected after analysis of at least 100 cells and statistics were calculated using Student's t-test (*p<0.05, **p<0.01, ***p<0.001).
For myoblast immunostaining, 40,000 cells were seeded in a 24-well plate (previously covered with collagen) with 400 μl of KMEM medium and incubated overnight. The following day the medium was changed for the DMEM Glutamax 4.5 g (Gibco) differentiation medium supplemented with 2% horse serum (Sigma); penicillin (100 U/ml) and streptomycin (100 mg/ml) [1% P/S; Gibco], gentamicin (50 μg/ml; Sigma) and insulin (10 μg/ml; Sigma). […] The cells were incubated for 72 h with the compounds and fixed in 4% paraformaldehyde for 10 minutes. All cell cultures were incubated at 37° C. with 5% CO2.
Nuclei were stained with DAPI. […]

SMA Δ7 mice = assay: Body weight and behavioral motor tests in SMA Δ7 mice; type: in vivo
Method: FIG. 4. Effect of Haloperidol treatment on weight and motor performances of SMN Δ7 mice. […] VHL (vehicle, 0.9% saline solution with 2% DMSO) n=8, HALO (haloperidol) n=5. Results are expressed as mean±SEM (two-way ANOVA, * p≤0.05; ** p≤0.01; *** p≤0.001; **** p≤0.0001).
(§7) The efficacy of Haloperidol was then tested (University of Turin, Boido et al.) in SMA Δ7 mice (purchased from Jackson Laboratory, Maine, USA; stock number 005025). This triple mutant mouse harbors two transgenic alleles and a single targeted mutant. The Tg(SMN2*delta7)4299Ahmb allele consists of a SMN cDNA lacking exon 7 whereas the Tg(SMN2)89Ahmb allele consists of the entire human SMN2 gene. […] At birth, triple mutants are noticeably smaller than normal littermates; by day 5, signs of muscle weakness appear and become progressively more pronounced over the following week as the mice display an abnormal gait, shakiness in the hind limbs and a tendency to fall over. Mean survival is approximately 13 days.
(§8) Treated SMA mice subcutaneously received 0.5 mg/Kg Haloperidol, dissolved in 2% DMSO in saline solution (HALO group), whereas control mice received an equal amount of saline solution with 2% DMSO (VHL group). Haloperidol or saline solution were daily administered, from P2 (postnatal day 2) to P12 (day of sacrifice).
During the whole period, the animals underwent a number of behavioral motor tests: tail suspension test, righting reflex, hindlimb suspension test, negative geotaxis (El-Khodor et al. 2008, Boido et al. 2018). Mice were evaluated daily starting from P2 for body weight and behavioral performances: • Tail suspension test (self-clasping): pups were suspended by the tail for 15 s, and their hind-limb posture was scored in a scale from 4 (normal) to 0 (clasping); • Righting reflex: pups were placed on their backs on a flat surface; their success or failure to reposition themselves dorsal side up was assessed over a 30 s period; • Negative geotaxis test: starting from P4, pups we placed on an inclined grid with the mouse head facing down (cut off: max 60 s).

SMN2 FL transcript = assay: qPCR quantification of SMN2 full length (FL) transcript in SMA fibroblasts; type: cell-based, human; design: key to SMN2 FL isoform levels: relative expression (2^-ΔΔCt), normalized to reference gene; conditions: for SMN2 FL isoform levels: 48 hours, GM03813 fibroblasts, normalized to GAPDH, each of 3 samples
Method: as §1, §2, §3, §4, §5, §6

[2] = system: SMA motoneurons derived from hiPSCs; assay: Survival rate of hiPSC-derived SMA motoneurons (ISL1-positive cells); type: cell-based, human; conditions: 10 days of treatment
Method: (B) SMA MNs survival rate analysis after 10 days of treatment at a range of concentrations. […] Kenpaullone (Ken) at 10 μM was used as as positive control in those experiments.
For spinal motor neurons (MNs) differentiation from hiPSCs, we used a previously reported protocol [Maury et al., 2015]. HiPSC were incubated in suspension in a neural induction medium containing DMEM/F12 and Neurobasal medium supplemented with B27 (Life Technologies), N2 Supplement (Life Technologies), Pen-Strep 0.1%, β-Mercaptoethanol (β-ME) 0.1% (Life Technologies), Ascorbic Acid (0.5 μM, Sigma-Aldrich), Chir99021 (3 μM, Stemgent), SB431542 (20 μM, Tocris), LDN 193189 (0.2 μM, Stemgent) and Y-27632 (10 μM, Stemcell) at a density of 0.2×10^6 cells/ml in T25 flask or 0.25×10^6 cells/ml in spinner flask. After 2 days, caudalization of the neural progenitors was obtained by addition of retinoic acid (RA 0.1 μM) and smoothened agonist (SAG, 0.5 μM). After 1 week in suspension, brain-derived neurotrophic factor (BDNF, 10 ng/ml), glial-derived neurotrophic factor (GDNF, 10 ng/ml), and N-[N-(3,5-Difluorophenacetyl)-L-alanyl]-S-phenylglycine t-butyl ester (DAPT, 10 nM) were added in the medium without SB431542 and LDN193189. Between day 10 and 14, MN progenitors are converted into MNs. […]
The survival of MNs was determined by quantifying the number of ISL1-positive cells in each condition.

delta 7 SMA mice [3] = assay: Muscular fiber morphology of quadriceps in delta 7 SMA mice; type: in vivo; conditions: P12, 10 days at 0.5 mg/kg, versus sham
Method: FIG. 9. The effect of haloperidol on muscular fiber morphology in the skeletal muscles of delta 7 mice. Comparison of quadriceps fiber morphology between sham (0.9% saline solution with 2% DMSO) and haloperidol-treated delta 7 SMA mice at P12. The measurements of the muscle fiber area (A), perimeter (B), and maximum and minimum Feret's diameter of muscle fibers (C). At least 100 fibers were analyzed from each animal; the results are shown as the averages obtained from the individual animals.
We first performed morphological analyses of the H/E-stained quadriceps muscles from mice at postnatal day 12 (P12) after 10 days of treatment with haloperidol at 0.5 mg/kg and compared it to mice treated with sham. Specifically, for the morphological analysis of quadriceps skeletal muscle sections were stained with H/E, as previously described (Valsecchi et al. (2015); Rindt et al. (2015)). To morphologically evaluate mean fiber area, perimeter, minimum and maximum Feret's diameter, more than 100 fibers for each animal were drawn with Neurolucida software (MicroBrightField Inc.) and a computer-assisted microscope (Nikon Eclipse E600 microscope). Data were obtained by the associated data analysis software NeuroExplorer (MicroBrightField): we then averaged the means obtained from single animals. Images of skeletal muscles fibers were acquired with Zeiss Axioscan Z.1 digital slide scanner microscope (Carl Zeiss AG).

delta 7 SMA mice [4] = assay: NMJ innervation of quadriceps muscles in delta 7 SMA mice; type: in vivo; conditions: mean ± SEM, sham 33.75±1.31%
[5] = system: co-culture of SMA type I motoneurons and SMA type I myoblasts; assay: Motoneurons and myoblasts co-culture (MN survival, myotube area); type: cell-based, human; conditions: treatment every 3 days for 7 days, versus non-treated controls
Source text: SMA type I (SMA) or healthy motoneurons (MN) derived from induced pluripotent stem cells were co-cultured with SMA type I or healthy myoblasts differentiated into myotubes. […] (B) Analysis of SMA myotubes area compared to the same controls as above. […] Myotubes were marked using MF20 marker (dark green), MNs were marked with ISL1 (red), acetylcholine receptors were marked with AChR (light green) and cell nuclei were stained with Hoechst (blue).
Primary cells were isolated from skeletal muscle as described previously (Chaouch et al. 2009). These cells were expanded and differentiated as previously described. Briefly, primary and immortalized myoblasts were expanded in a mix of 199 medium/Dulbecco modified Eagles minimal essential medium (1:4 ratio) supplemented with 20% fetal bovine serum (FBS), 25 μg/mL fetuin, 0.5 ng/ml basic fibroblast growth factor, 5 ng/ml epidermal growth factor, 5 μg/mL insulin. Cells were then cultivated in a growth medium consisting of DMEM-F12 glutamax (Life Technologies) supplemented with 20% FBS (Sigma-Aldrich) and 0.1% penicillin/steptomycin (Life Technologies). Myogenic differentiation was induced by switching growth medium to DMEM supplemented with 2% horse serum (Life Technologies).
For co-culture, spinal MNs must be differentiated from hiPSC as described previously, but the embryoid bodies are dissociated at day 14 of differentiation and frozen. […]

SMN = SMN expression by Western Blot in tissues of SMA Δ7 mice at P12; type: in vivo; conditions: P12, 0.5 mg/Kg s.c. daily
Method: FIG. 5. Analysis of SMN expression by Western Blot.
as §7, §8
At P12, Halo and VHL animals were sacrificed, and fresh spinal cords and some skeletal muscles (diaphragm, quadriceps, and gastrocnemius) were rapidly dissected. We then verified the effect of Haloperidol on SMN expression on these samples. Tissues were homogenized on ice using a pestle homogenizer in radioimmunoprecipitation assay buffer (RIPA lysis buffer) (Merck Life Sciences) supplemented with 1 mM PMSF, 1 mM DTT, 2 mM sodium orthovanadate (ThermoFisher Scientific) and 1× cOmplete™ Protease Inhibitor Cocktail (Merck Life Sciences). Sample homogenates were incubated on ice for 20 min before being centrifuged for the insoluble material separation at 14,000×g for 20 min at 4° C. Total protein concentration was assayed on supernatants using Bradford reagent (Bio-Rad). Protein denaturation was performed with NuPAGER LDS Sample Buffer supplemented with NuPAGE® Sample Reducing Agent (ThermoFisher Scientific), by heating at 95° C. for 5 min. SDS-PAGE and transfer were performed on 4-20% Mini-PROTEAN® TGX™ Precast Protein Gels and Trans-Blot® Turbo™ mini nitrocellulose membranes using a Trans-Blot® Turbo™ transfer System (Bio-Rad), respectively. Nonspecific binding sites were blocked using 5% nonfat dried milk in PBS-0.2% Tween-20 (Merck Life Sciences) (PBS-T) for 1 h at RT under shaking. […] Immunolabeling was detected with Clarity™ Western ECL Blotting Substrates (Bio-Rad) using the ChemiDoc™ imaging system (Bio-Rad). Densitometric quantitation of bands was performed with Fiji (Image J, NIH).

[6] = 0.5 mg/Kg subcutaneously daily P2 to P12, versus VHL

**Q.** Which SMN protein levels (SMN protein; 25 μM) does the source give for `O=C(CCCN1CCC(O)(c2ccc(Cl)cc2)CC1)c1ccc(F)cc1` [haloperidol] here?
**A.** 1.132 and 1.751 and 1.745

**Q.** And the SMN protein levels (SMN protein; 37.5 μM)?
**A.** 2.265 and 2.211 and 2.469

**Q.** What about the SMN protein levels (SMN protein; 50 μM) of the same compound?
**A.** 2.413 and 2.453 and 2.614

**Q.** And the “SMN2 Δ7 isoform levels” value (SMN2 Δ7 transcript; 10 μM)?
**A.** 0.90 and 0.89

**Q.** What about the “SMN2 Δ7 isoform levels” value (SMN2 Δ7 transcript; 25 μM) of the same compound?
**A.** 1.00 and 1.06 and 1.04

**Q.** And the “SMN2 Δ7 isoform levels” value (SMN2 Δ7 transcript; 37.5 μM)?
**A.** 0.96 and 1.01 and 1.03

**Q.** What about the “SMN2 Δ7 isoform levels” value (SMN2 Δ7 transcript; 50 μM) of the same compound?
**A.** 1.89 and 1.23

**Q.** And the fusion index ([1]; 2.5 μM)?
**A.** 66.7%

**Q.** And the body weight (SMA Δ7 mice; [6])?
**A.** significant weight increase

**Q.** What about the negative geotaxis test (SMA Δ7 mice; [6]) of the same compound?
**A.** improved motor performances

**Q.** And the righting reflex test (SMA Δ7 mice; [6])?
**A.** improved motor performances

**Q.** And the tail suspension test (SMA Δ7 mice; [6])?
**A.** improved motor performances

**Q.** And the “side effects (behavioral changes or sedation phenotypes)” value (SMA Δ7 mice; murine SMA model, haloperidol administration)?
**A.** not associated with any conspicuously deleterious or undesirable side effects

**Q.** And the “SMN2 FL isoform levels” value (SMN2 FL transcript; 10 μM)?
**A.** 1.10 and 1.03 and 1.06

**Q.** What about the “SMN2 FL isoform levels” value (SMN2 FL transcript; 25 μM) of the same compound?
**A.** 1.15 and 1.37 and 1.07

**Q.** What about the “SMN2 FL isoform levels” value (SMN2 FL transcript; 37.5 μM) of the same compound?
**A.** 1.32 and 1.47 and 1.51

**Q.** And the “SMN2 FL isoform levels” value (SMN2 FL transcript; 50 μM)?
**A.** 2.54 and 2.11 and 2.33

**Q.** What about the “amount of FL SMN2 transcript” value (SMN2 FL transcript; at the highest concentration) of the same compound?
**A.** doubled

**Q.** And the “SMA motoneurons survival rate” value ([2]; 0.32 μM)?
**A.** almost completely rescue

**Q.** What about the “SMA motoneurons survival rate compared with positive control” value ([2]; versus kenpaullone at 10 μM) of the same compound?
**A.** more efficient than the positive control kenpaullone

**Q.** And the “increase in Max Feret's diameter” value (delta 7 SMA mice [3])?
**A.** +40%

**Q.** And the “increase in fiber area” value (delta 7 SMA mice [3])?
**A.** +104%

**Q.** And the “increase in fiber perimeter” value (delta 7 SMA mice [3])?
**A.** +43%

**Q.** And the “increase in min Feret's diameter” value (delta 7 SMA mice [3])?
**A.** +49%

**Q.** And the denervated endplates (delta 7 SMA mice [4])?
**A.** 9.50±1.50%

**Q.** And the “area of myotubes in co-culture” value [5]?
**A.** increases the area of myotubes

**Q.** What about the “survival rate of SMA MNs in co-culture” value [5] of the same compound?
**A.** increases the survival rate of SMA MNs

**Q.** What about the “SMN expression increase compared to VHL” value (SMN; diaphragm) of the same compound?
**A.** 23%

**Q.** What about the “SMN expression increase compared to VHL” value (SMN; gastrocnemius) of the same compound?
**A.** 102%

**Q.** What about the “SMN expression increase compared to VHL” value (SMN; quadriceps) of the same compound?
**A.** 123%

**Q.** And the “SMN expression increase compared to VHL” value (SMN; spinal cord)?
**A.** 58%

**Q.** For `Cc1cn2nc(-c3cc(=O)n4cc(N5CCNC6(CC6)C5)ccc4n3)cc(C)c2n1` [risdiplam], which fusion index ([1]; 1 μM (positive control)) is on record?
**A.** 66.7%

Reference: US20240390356A1, “HALOPERIDOL FOR USE IN THE TREATMENT OF SPINAL MUSCULAR ATROPHY” (UNIVERSITAT DE VALÈNCIA, priority 2021, published 2024)
